The values below come from PMC10219169, “Thiopurines Analogues with Additional Ring: Synthesis, Spectroscopic Properties, and Anticancer Potency” (International Journal of Molecular Sciences, 2023).

Data set [1] is described as follows: n-octanol/phosphate buffer pH 7.4 partition coefficient (lipophilicity determination). The class given is physicochemical. Conditions: 1-octanol/phosphate buffer pH 7.4, read-out: Experimental log Po/w (pH 7.4). The protocol:
The key parameter in drug design and one of the most important properties for all the pharmacokinetic rules is the octanol/water partition coefficient, log Po/w. It is defined as the partition coefficient ratio of a compound between the hydrophobic and hydrophilic phases and corresponds to lipophilicity, which describes drug interactions with membranes and the possibility of their transport across the membrane into the cell. The values of log Po/w were determined experimentally for all the tested compounds and compared with the values theoretically estimated on the SwissADME [23] webserver.
The partition coefficients of the tested compounds were determined for n-octanol/phosphate buffer pH 7.4 at 25 °C and 37 °C. The initial concentrations of the compounds (1.0 × 10^−5 M and 2.0 × 10^−5 M) were measured spectrophotometrically, according to the Beer–Lambert law. The absorbances were recorded at λmax of the appropriate compound against a suitable phosphate buffer blank. A quantity of 1 mL of the solution of the tested compound in the phosphate buffer at pH 7.4 and 1 mL of n-octanol were placed in 2 mL Eppendorf tubes. The samples were shaken manually (2 min), vortexed (5 min), and incubated for 5 h at 25 °C or 37 °C. Then, the tubes were centrifuged (2 min, 10,000 rpm). Both layers were carefully separated, and the absorbances were measured for the aqueous layers at a suitable λmax against the blank of the phosphate buffer at a suitable pH. The given logPo/w values are the mean of three independent experiments (one experiment: 3 samples for 2 concentrations of each compound).

The subject of a further data set is HeLa cells. Briefly: CellTiter-Glo cell viability assay (24 h), HeLa. Conditions: for IC50: CellTiter-Glo; for reduction of HeLa cell viability: c = 80 μM; for selectivity index (SI): SI = IC50 normal cell (NIH/3T3) / IC50 cancerous cell (HeLa). The class given is cell-based, human. The protocol:
(§1) The compounds in this work were tested for their in vitro inhibitory effect on the viability of the HeLa (cancerous) cell line using the CellTiter-Glo® 2.0 cell viability assay (24 h). In addition, the mouse fibroblast NIH/3T3 cell line was used to assess the effects of the compounds on healthy normal cells. […] The 6TG was used as a standard in all tests conducted. The graph of percentage cell viability (y axis) against concentrations of the tested compounds (x axis) and concentration-viability curves with IC50 values from dose-response studies are presented in Figure 4 and Figure 5, respectively.
(§2) The cytotoxicity of the synthesized compounds was tested using cell lines of cervical cancer (HeLa) and mouse fibroblasts (NIH/3T3). Both cell lines were cultured in Dulbecco′s Modified Eagle′s medium (31053, Sigma-Aldrich-Gibco, Thermo Fisher Scientific, Waltham, MA, USA) supplemented with 10% fetal bovine serum (Biowest, Nuaillé, France), 1% Glutamax (Thermo Fisher Scientific, Waltham, MA, USA), and 1% Antibiotic-Antimycotic (Biowest) under standard culture conditions (95% humidity, 5% CO2, at 37 °C). For the purpose of cytotoxicity assays, cells (from both cell lines) were seeded at a density of ca. 5000 cells/well on a 96-well microplate (white, flat bottom), in 4 replicates. 6-Me-TEGuo, 6-Me-TEGua, TEGuo, TEGua, and 6-Me-TEG were tested for their potential cytotoxicity using the following concentrations: 160 (except 6-Me-TEG), 80, 40, 20, 10, 5, and 2.5 μM. Additionally, 6-thioguanine (6TG) in concentrations of 10, 7.5, 5, 2.5, 1.25, and 0.625 μM was tested. All assays included non-treated cells and cells treated with 10% DMSO as negative and positive controls, respectively. The cells were incubated for 24 h under standard culture conditions. Cytotoxicity was measured as cell viability with the CellTiter-Glo® Luminescent Cell Viability Assay (Promega, Madison, WI, USA) according to the manufacturer’s protocol. The microplate luminescence was measured using an Infinite® 200 PRO plate reader (Tecan, Männedorf, Switzerland). Then, the average luminescence of non-labeled cells was equated to 100%, and the remaining values were proportionally normalized. The IC50 values were calculated from the fitting curves using Origin 2022.
For orientation: Cellular ATP, detected with luciferase, serves as a proxy for viable cell number.

A further data set has as its system NIH/3T3 cells. Briefly: CellTiter-Glo cell viability assay (24 h), NIH/3T3. The note with it: Mus musculus, NIH3T3, NIH/3T3, 24 h. It is filed as cell-based. The protocol: as §1, §2
The nature of data set [2]: pKa determination by spectrophotometric method. The note with it: for fraction existing in ionic form: at physiological pH (7.32–7.42); for pKa: spectrophotometric method, buffer solutions of different pH. The class given is physicochemical. The protocol:
The synthesized compounds, due to their structure, can be hydrogen donors as well as acceptors. Depending on the pH, they can exist in protonated or deprotonated forms. In order to establish which form of the new tricyclic thiopurine derivatives is favored at neutral pH (the conditions under which the in vitro tests will be carried out), their pKa values were determined by spectrophotometric methods (see Table 1 and the Experimental Section). […] This means that at physiological pH (7.32–7.42), about 6% of TEGuo/TEGua exist in ionic form, while 6-Me-TEGuo/6-Me-TEGua only about 4%.
UV-vis absorption spectra were recorded using a Cary 100 spectrophotometer scanning from 800 to 200 nm with 1 nm increments in 1 cm × 1 cm quartz cells. Emission spectra were taken in 1 cm × 1 cm quartz cells on a JASCO FP–8300 spectrofluorometer (excitation and emission slits 5 nm, scan speed 500 nm min^−1) for solutions with absorbance at the excitation wavelength less than 0.1. The fluorescence quantum yields were determined using 10-methylacridinium cation in water (Φ = 1.0) as a standard. The dissociation constants were determined by the spectrophotometric method: in a first step, buffer solutions of different pH were prepared. The pH of solutions was determined by a Mettler Toledo F20 FiveEasy pH meter equipped with a pH electrode LE438 3 in 1 (Mettler Toledo). In the second step, equal volumes of a substance dissolved in water (10 μL) were added to the buffer solution (3 mL). The spectra were recorded with 1 nm resolution over the range from 220 to 550 nm to obtain different spectra around the maximum λ for each compound studied. The purity of all samples was monitored by an HPLC method. HPLC measurements were performed using an Agilent 1200 Rapid Resolution UHPLC system equipped with a reversed-phase column (Eclipse Plus C18, […], 4.6 × 250 mm). A gradient of acetonitrile in water was used as an eluent. The water was doubly distilled and purified using a Milli-Q system (Millipore, Bedford, MA, USA). The fluorescence lifetime measurements were recorded using a Fluorescence Lifetime Spectrometer (FluoTime 300 from PicoQuant) with a time-correlated single-photon counting detection system equipped with a 378 nm laser as its excitation source. All experiments were carried out in a standard quartz cell (1 cm × 1 cm).

A short description of data set [3]: pKa* of singlet excited state from pH-dependent fluorescence emission. It is filed as physicochemical. The note with it: determined from emission from the singlet excited state. The protocol: At pH 4.0, as was the case for the absorbance at 352 nm, the intensity and shape of the fluorescence signal were similar to those observed in water solution for all the compounds tested. However, in the case of basic pH, a two-fold increase in the emission intensity and a blueshift of the emission maximum were observed.
UV-vis absorption spectra were recorded using a Cary 100 spectrophotometer scanning from 800 to 200 nm with 1 nm increments in 1 cm × 1 cm quartz cells. Emission spectra were taken in 1 cm × 1 cm quartz cells on a JASCO FP–8300 spectrofluorometer (excitation and emission slits 5 nm, scan speed 500 nm min^−1) for solutions with absorbance at the excitation wavelength less than 0.1. The fluorescence quantum yields were determined using 10-methylacridinium cation in water (Φ = 1.0) as a standard. The dissociation constants were determined by the spectrophotometric method: in a first step, buffer solutions of different pH were prepared. The pH of solutions was determined by a Mettler Toledo F20 FiveEasy pH meter equipped with a pH electrode LE438 3 in 1 (Mettler Toledo). […] The spectra were recorded with 1 nm resolution over the range from 220 to 550 nm to obtain different spectra around the maximum λ for each compound studied. The purity of all samples was monitored by an HPLC method. […]

Where [4] appears, read: n-octanol/phosphate buffer pH 7.4, pH 7.4, 25 °C.
[5] abbreviates: n-octanol/phosphate buffer pH 7.4, pH 7.4, 37 °C.

Like-named read-outs stand apart in the source and are kept apart here. Some results are limits rather than exact numbers.

Usually IC50 stands for the midpoint of a concentration-inhibition curve. A high value points to weaker potency. For orientation: pKa means the negative logarithm of the acid dissociation constant. A lower pKa goes with a stronger acid or weaker base.

On to `CC(=O)OC[C@H]1O[C@@H](n2cnc3c(=S)n4cc(C)[nH]c4nc32)[C@H](OC(C)=O)[C@@H]1OC(C)=O` [6-Me-TEG, 2′,3′,5′-tri-O-acetyl-6-methyl-9-thio-1,N^2-ethenoguanosine], for which the values for the logP at 5 h in data set [1] (setting [4]) and in data set [1] (setting [5]) were 0.8 and 0.75, respectively. Besides, the “effect on HeLa cell viability” value in the data set with HeLa cells (HeLa, concentration range 2.5 μM to 80 μM, 24 h) is given as “no effect on HeLa cell viability was observed”.
Consider `Cc1cn2c(=S)c3nc[nH]c3nc2[nH]1` [6-Me-TEGua, 6-methyl-9-thio-1,N^2-ethenoguanine], for which the concentration for half-maximal inhibition (IC50) with NIH/3T3 cells is 51.6 µM; in the data set on HeLa cells (HeLa, 24 h) it was less than 100 µM; in the data set on HeLa cells (Homo sapiens, HeLa, 24 h), 78.2 µM. The logP at 5 h was determined as 0.75 in data set [1] (setting [4]) and 0.7 in data set [1] (setting [5]). Besides, in the data set on HeLa cells (HeLa, 24 h), the “reduction of HeLa cell viability” value is given as “up to 57%”. Also, the “fraction existing in ionic form” value in data set [2] is given as “about 4%”. This molecule also displayed a pKa in data set [2] of 8.8.
As to `Cc1cn2c(=S)c3ncn([C@@H]4O[C@H](CO)[C@@H](O)[C@H]4O)c3nc2[nH]1` [6-Me-TEGuo, 6-methyl-9-thio-1,N^2-ethenoguanosine], the 50% inhibitory concentration (IC50) is 63.8 µM in the data set with NIH/3T3 cells; less than 100 µM with HeLa cells (HeLa, 24 h); 55.8 µM with HeLa cells (Homo sapiens, HeLa, 24 h). Besides, the logP at 5 h in data set [1] (setting [4]) is -0.61; in data set [1] (setting [5]), -0.67. For the same molecule, in the data set with HeLa cells (HeLa, 24 h), the “reduction of HeLa cell viability” value is on record as “up to 42%”. The “selectivity index (SI)” value with HeLa cells was more than 1. The “fraction existing in ionic form” value in data set [2] is given as “about 4%”. In data set [2], this molecule returned a pKa of 8.8. For the same molecule, the “pKa* (singlet excited state)” value in data set [3] turned out to be 8.9.
As to `Nc1nc2nc[nH]c2c(=S)[nH]1` [6TG, 6-thioguanine, reference compound], the “selectivity index (SI)” value in the data set on HeLa cells is listed as more than 1.
For `S=c1c2nc[nH]c2nc2[nH]ccn12` [TEGua, 9-thio-1,N^2-ethenoguanine], the 50% inhibitory concentration (IC50) in the data set with NIH/3T3 cells was determined as 97.9 µM; with HeLa cells (Homo sapiens, HeLa, 24 h), 137 µM. In addition, the results for the logP at 5 h in data set [1] (setting [4]) and in data set [1] (setting [5]) were 0.58 and 0.52, respectively. For the same molecule, the “fraction existing in ionic form” value in data set [2] is reported as “about 6%”. For the same molecule, the pKa in data set [2] stood at 8.6.
For the molecule `OC[C@H]1O[C@@H](n2cnc3c(=S)n4cc[nH]c4nc32)[C@H](O)[C@@H]1O` [TEGuo, 9-thio-1,N^2-ethenoguanosine], the half-inhibitory concentration (IC50) was 83.6 µM with NIH/3T3 cells; less than 100 µM in the data set with HeLa cells (HeLa, 24 h); 80.2 µM in the data set with HeLa cells (Homo sapiens, HeLa, 24 h). Moreover, the logP at 5 h in data set [1] (setting [4]) was -0.89; in data set [1] (setting [5]), -0.96. In addition, the “selectivity index (SI)” value in the data set on HeLa cells is more than 1. Moreover, the “fraction existing in ionic form” value in data set [2] is reported as “about 6%”. This molecule also gave a pKa in data set [2] of 8.6. In data set [3], the “pKa* (singlet excited state)” value came to 8.7.
